Reference: patent US10597388B2, “Pyridazinone herbicides” (FMC CORPORATION, priority 2014, dated 2020)

Columns and labels:
Format in all cases: in vivo
[1] = system: wheat (winter wheat, Triticum aestivum); assay: Test C greenhouse herbicide test, pre- and postemergence
Outline: (§1)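 Preemergence: seeds sown in a loam soil–sand blend and sprayed with test chemicals in a non-phytotoxic solvent mixture containing surfactant. Postemergence: plants grown in peat-based medium and treated at 2 to 18 cm (1- to 4-leaf stage). After 13 to 15 d in a greenhouse, injury was visually rated 0–100 against controls.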

[2] = system: barnyardgrass (Echinochloa crus-galli); assay: as above
Outline: as §1

[3] = system: galium (catchweed bedstraw, Galium aparine); assay: as above
Outline: as §1

[4] = system: nutsedge, yellow (yellow nutsedge, Cyperus esculentus); assay: as above
Outline: as §1

[5] = system: blackgrass (Alopecurus myosuroides); assay: Test A greenhouse herbicide test, postemergence
Outline: (§2)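 Plants grown in loam soil/sand blend pots were treated postemergence at 2 to 10 cm height, one- to two-leaf stage, with formulated test chemicals. After approximately 10 d in a greenhouse, injury was rated visually against untreated controls on a 0 to 100 scale (0 no effect, 100 complete control).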

[6] = system: galium (catchweed bedstraw, Galium aparine); assay: Test A greenhouse herbicide test, postemergence
Outline: as §2

corn (Zea mays) = assay: Test A greenhouse herbicide test, pre- and postemergence; details: Postemergence
Outline: (§3)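 Seeds sown in loam–sand blend got a preemergence directed soil spray of compound in non-phytotoxic solvent with surfactant. Postemergence treatment was given at 2–10 cm, one- to two-leaf stage. After ~10 d in greenhouse, injury was rated visually vs untreated controls, 0 (no effect) to 100 (complete control).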

[7] = system: ragweed (common ragweed, Ambrosia elatior); assay: as above
Outline: as §3

[8] = system: pigweed (Amaranthus retroflexus); assay: as above
Outline: as §3

[9] = system: foxtail, giant (giant foxtail, Setaria faberii); assay: as above
Outline: as §3

[10] = system: barnyardgrass (Echinochloa crus-galli); assay: as above
Outline: as §3

[11] = Postemergence, 31 g ai/ha, scale 0 to 100 (0 no effect, 100 complete control)
[12] = Postemergence, 125 g ai/ha, scale 0 to 100, 0 is no effect, 100 is complete control
[13] = Postemergence, 250 g ai/ha, scale 0 to 100, 0 no effect, 100 complete control, 13 to 15 d
[14] = postemergence, 62 g ai/ha, scale 0 to 100, 0 no effect, 100 complete control
[15] = 125 g ai/ha, 0 to 100 scale where 0 is no effect and 100 is complete control
[16] = 500 g ai/ha, visual rating after approx. 10 d, 0 to 100 scale (0 no effect, 100 complete control)
[17] = Postemergence, 125 g ai/ha, 0 to 100 scale where 0 is no effect and 100 is complete control
[18] = Postemergence, 500 g ai/ha, visual rating after approx. 10 d, 0 to 100 scale (0 no effect, 100 complete control)
[19] = Preemergence, 125 g ai/ha, 0 to 100 scale where 0 is no effect and 100 is complete control
[20] = Preemergence, 500 g ai/ha, 0 to 100 scale where 0 is no effect and 100 is complete control
[21] = Preemergence, 31 g ai/ha, scale 0 to 100, 0 is no effect, 100 is complete control
[22] = Preemergence, 62 g ai/ha, scale 0 to 100, 0 is no effect, 100 is complete control
[23] = Preemergence, 125 g ai/ha, scale 0 to 100, 0 is no effect, 100 is complete control
[24] = Preemergence, 250 g ai/ha, scale 0 to 100 (0 no effect, 100 complete control)

Cc1nn(C)c(=O)c(-c2ccc(F)c3ccccc23)c1OC(=O)CC(F)(F)F [Compound 123]
Plant response rating, Wheat [1, 11]: 5
Plant response rating, Wheat [1, 12]: 15
Plant response rating, Wheat [1, 13]: 20
Plant response rating, Barnyardgrass [2, 11]: 20
Plant response rating, Barnyardgrass [2, 12]: 40
Plant response rating, Barnyardgrass [2, 13]: 70
Barnyardgrass plant response rating [2, 14]: 25
Plant response rating, Galium [3, 11]: 95
Plant response rating, Galium [3, 12]: 95
Plant response rating, Galium [3, 13]: 95
Plant response rating, Nutsedge, Yellow [4, 11]: 55
Plant response rating, Nutsedge, Yellow [4, 12]: 85
Plant response rating, Nutsedge, Yellow [4, 13]: 90
Plant response rating, Blackgrass [5, 15]: 30
Plant response rating, Blackgrass [5, 16]: 50
Plant response rating, Galium [6, 15]: 80
Plant response rating, Galium [6, 16]: 90
Plant response rating, Corn (corn (Zea mays); [15]): 0
Plant response rating, Corn (corn (Zea mays); [16]): 20
Plant response rating, Ragweed [7, 17]: 50
Plant response rating, Ragweed [7, 18]: 90
Ragweed plant response rating [7, 19]: 60
Plant response rating, Ragweed [7, 20]: 70
Plant response rating, Pigweed [8, 17]: 60
Plant response rating, Pigweed [8, 18]: 70
Pigweed plant response rating [8, 19]: 100
Plant response rating, Pigweed [8, 20]: 100
Plant response rating, Foxtail, Giant [9, 17]: 50
Plant response rating, Foxtail, Giant [9, 18]: 60
Foxtail, Giant plant response rating [9, 19]: 70
Plant response rating, Foxtail, Giant [9, 20]: 70
Plant response rating, Barnyardgrass [10, 17]: 40
Plant response rating, Barnyardgrass [10, 18]: 70
Barnyardgrass plant response rating [10, 19]: 0
Plant response rating, Barnyardgrass [10, 20]: 80

Cc1ccc2ccccc2c1-c1c(O)c(Cl)nn(C)c1=O [Compound 125]
Plant response rating, Wheat [1, 11]: 0
Plant response rating, Wheat [1, 12]: 30
Plant response rating, Wheat [1, 13]: 35
Plant response rating, Wheat [1, 21]: 40
Plant response rating, Wheat [1, 22]: 45
Plant response rating, Wheat [1, 23]: 90
Wheat plant response rating [1, 24]: 90
Plant response rating, Barnyardgrass [2, 11]: 35
Plant response rating, Barnyardgrass [2, 12]: 80
Plant response rating, Barnyardgrass [2, 13]: 70
Plant response rating, Barnyardgrass [2, 21]: 55
Plant response rating, Barnyardgrass [2, 22]: 70
Plant response rating, Barnyardgrass [2, 23]: 90
Barnyardgrass plant response rating [2, 24]: 98
Barnyardgrass plant response rating [2, 14]: 40
Plant response rating, Galium [3, 11]: 95
Plant response rating, Galium [3, 12]: 95
Plant response rating, Galium [3, 13]: 95
Plant response rating, Galium [3, 21]: 100
Plant response rating, Galium [3, 22]: 100
Plant response rating, Galium [3, 23]: 100
Galium plant response rating [3, 24]: 100
Plant response rating, Nutsedge, Yellow [4, 11]: 35
Plant response rating, Nutsedge, Yellow [4, 12]: 85
Plant response rating, Nutsedge, Yellow [4, 13]: 90
Plant response rating, Nutsedge, Yellow [4, 21]: 65
Plant response rating, Nutsedge, Yellow [4, 22]: 95
Plant response rating, Nutsedge, Yellow [4, 23]: 95
Nutsedge, Yellow plant response rating [4, 24]: 90
Plant response rating, Blackgrass [5, 15]: 70
Plant response rating, Blackgrass [5, 16]: 80
Plant response rating, Galium [6, 15]: 90
Plant response rating, Galium [6, 16]: 90
Plant response rating, Corn (corn (Zea mays); [15]): 20
Plant response rating, Corn (corn (Zea mays); [16]): 30
Plant response rating, Ragweed [7, 17]: 90
Plant response rating, Ragweed [7, 18]: 100
Ragweed plant response rating [7, 19]: 80
Plant response rating, Ragweed [7, 20]: 90
Plant response rating, Pigweed [8, 17]: 100
Plant response rating, Pigweed [8, 18]: 100
Pigweed plant response rating [8, 19]: 100
Plant response rating, Pigweed [8, 20]: 100
Plant response rating, Foxtail, Giant [9, 17]: 90
Plant response rating, Foxtail, Giant [9, 18]: 90
Foxtail, Giant plant response rating [9, 19]: 90
Plant response rating, Foxtail, Giant [9, 20]: 100
Plant response rating, Barnyardgrass [10, 17]: 90
Plant response rating, Barnyardgrass [10, 18]: 90
Barnyardgrass plant response rating [10, 19]: 70
Plant response rating, Barnyardgrass [10, 20]: 90
